Assays:
[1] = target: T1, 5-hydroxytryptamine receptor 1A (Homo sapiens, UniProt P08908); assay: Displacement of [3H]-5-HT from human 5-HT1A receptor expressed in CHOK1 cells after 30 mins by liquid scintillation counting analysis; type: cell-based, CHO-K1
T1 sequence (P08908 whole entry): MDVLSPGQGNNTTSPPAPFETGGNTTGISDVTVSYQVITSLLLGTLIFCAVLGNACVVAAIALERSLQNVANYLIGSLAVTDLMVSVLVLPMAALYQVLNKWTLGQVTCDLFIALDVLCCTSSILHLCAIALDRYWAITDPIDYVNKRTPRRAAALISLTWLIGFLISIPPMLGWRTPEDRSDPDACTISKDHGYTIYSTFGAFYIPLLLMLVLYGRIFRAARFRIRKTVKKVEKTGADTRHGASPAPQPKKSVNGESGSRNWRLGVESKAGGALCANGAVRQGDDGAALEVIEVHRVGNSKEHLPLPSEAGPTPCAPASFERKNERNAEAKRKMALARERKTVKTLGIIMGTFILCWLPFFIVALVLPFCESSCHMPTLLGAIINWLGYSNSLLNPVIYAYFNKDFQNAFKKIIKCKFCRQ

[2] = target: T2, 5-hydroxytryptamine receptor 7 (Homo sapiens, UniProt P34969); assay: Displacement of [3H]-8-OH-DPAT from human 5-HT7 receptor expressed in CHOK1 cells after 30 mins by liquid scintillation counting analysis; type: cell-based, CHO-K1
[3] = target: 5-hydroxytryptamine receptor 1B (Homo sapiens) (UniProt P28222); assay: Antagonist activity at human […] receptor expressed in HEK293 cells assessed as inhibition of 5-CT-induced cAMP production at 1 uM after 30 mins by TR-FRET assay; type: functional, cell-based
[4] = target: T2, 5-hydroxytryptamine receptor 7; assay: Displacement of [3H]-8-OH-DPAT from human 5-HT7 receptor expressed in CHOK1 cells at 10^-5 M after 30 mins by liquid scintillation counting analysis; type: cell-based; details: CHO-K1
[5] = target: T3, 5-hydroxytryptamine receptor 1A (Rattus norvegicus, UniProt P19327); assay: Binding affinity to rat hippocampus 5-HT1A receptor
T3 sequence (P19327 whole entry): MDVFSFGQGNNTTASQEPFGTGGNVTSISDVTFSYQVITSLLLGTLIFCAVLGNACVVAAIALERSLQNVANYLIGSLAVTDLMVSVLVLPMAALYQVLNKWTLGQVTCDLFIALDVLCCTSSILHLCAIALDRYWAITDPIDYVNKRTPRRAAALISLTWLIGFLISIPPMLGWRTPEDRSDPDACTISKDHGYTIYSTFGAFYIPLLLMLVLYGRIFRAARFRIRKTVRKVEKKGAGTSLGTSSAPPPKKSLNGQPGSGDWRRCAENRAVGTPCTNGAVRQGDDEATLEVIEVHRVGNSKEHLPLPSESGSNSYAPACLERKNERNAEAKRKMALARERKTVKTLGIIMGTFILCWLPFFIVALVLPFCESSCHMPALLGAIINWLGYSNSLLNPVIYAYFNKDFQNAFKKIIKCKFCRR

[6] = species on record: Homo sapiens; assay: Selectivity ratio of Ki for human 5-HT7 receptor to Ki for human 5-HT1A receptor
[7] = species on record: Homo sapiens; assay: Selectivity ratio of Ki for human 5-HT1A receptor to Ki for human 5-HT7 receptor

T2 sequence (P34969 whole entry): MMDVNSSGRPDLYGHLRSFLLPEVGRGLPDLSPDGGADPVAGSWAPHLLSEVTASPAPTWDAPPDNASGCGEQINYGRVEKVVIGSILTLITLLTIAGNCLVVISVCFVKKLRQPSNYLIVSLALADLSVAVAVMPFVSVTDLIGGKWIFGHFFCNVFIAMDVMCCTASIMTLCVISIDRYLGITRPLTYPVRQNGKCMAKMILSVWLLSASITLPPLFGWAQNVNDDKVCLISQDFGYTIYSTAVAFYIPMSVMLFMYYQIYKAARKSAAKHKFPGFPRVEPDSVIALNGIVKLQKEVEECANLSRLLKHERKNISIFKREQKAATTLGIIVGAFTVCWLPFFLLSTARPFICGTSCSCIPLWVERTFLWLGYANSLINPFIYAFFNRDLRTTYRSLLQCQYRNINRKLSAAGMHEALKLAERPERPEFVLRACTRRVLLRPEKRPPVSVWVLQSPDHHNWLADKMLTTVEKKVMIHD
5-hydroxytryptamine receptor 1B (Homo sapiens), sequence (P28222 whole entry): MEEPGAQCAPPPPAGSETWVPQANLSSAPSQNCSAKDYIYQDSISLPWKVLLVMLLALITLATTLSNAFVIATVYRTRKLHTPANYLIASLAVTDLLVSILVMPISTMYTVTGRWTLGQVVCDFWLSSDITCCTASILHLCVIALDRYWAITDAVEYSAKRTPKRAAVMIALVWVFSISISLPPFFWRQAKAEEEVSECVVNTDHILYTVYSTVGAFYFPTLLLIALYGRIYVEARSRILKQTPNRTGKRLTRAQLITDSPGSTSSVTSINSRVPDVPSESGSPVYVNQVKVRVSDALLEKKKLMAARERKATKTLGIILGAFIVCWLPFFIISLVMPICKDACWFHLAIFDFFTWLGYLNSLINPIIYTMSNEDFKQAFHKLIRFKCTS

Structure (SMILES)	Ki [1]	Ki [2]	further results
O=c1c2ccccc2ncn1CCCCCN1CCN(c2ccc(Cl)cc2)CC1	51.5 nM	12.9 nM	
CC1CCN(CC[C@H]2CCCN2S(=O)(=O)c2cccc(O)c2)CC1			inhibition [3]: 90%
Cc1sc2nc(CCCCN3CCN(Cc4ccccc4)CC3)[nH]c(=O)c2c1C			inhibition [4]: < 50%
O=c1[nH]c(CCCCCN2CCN(c3cccc(Cl)c3)CC2)nc2ccccc12	7.33 nM	11.9 nM	
O=c1[nH]c(CCCCN2CCN(c3cccc(Cl)c3)CC2)nc2ccccc12	2.96 nM	21.2 nM	
O=c1[nH]c(CCCCN2CCN(c3ccc(Cl)cc3)CC2)nc2ccccc12	75.3 nM	1140 nM	
O=c1[nH]c(CCCCCN2CCN(c3ccc(Cl)cc3)CC2)nc2ccccc12	116 nM	101 nM	
O=c1c2ccccc2ncn1CCCCCN1CCN(Cc2ccccc2)CC1	268 nM	1080 nM	
CCOc1ccccc1N1CCN(CCCCCn2cnc3ccccc3c2=O)CC1	1.04 nM	6.88 nM	inhibition [3]: 42%
Cc1sc2nc(CCCCCN3CCC(Cc4ccccc4)CC3)[nH]c(=O)c2c1C	148 nM	185 nM	
Cc1sc2nc(CCCCCN3CCN(Cc4ccccc4)CC3)[nH]c(=O)c2c1C	363 nM	147 nM	
O=c1c2ccccc2ncn1CCCCCN1CCN(c2ccccc2)CC1	28.9 nM	307 nM	
O=c1c2ccccc2ncn1CCCCCN1CCN(c2cccc(Cl)c2)CC1	6.28 nM	35.8 nM	
O=c1c2ccccc2ncn1CCCCN1CCN(c2cccc(Cl)c2)CC1	5.3 nM	502 nM	Ki [5]: 50 nM
O=c1[nH]c(CCCCN2CCN(c3ccccc3)CC2)nc2ccccc12	36.6 nM	145 nM	
O=c1[nH]c(CCCCCN2CCN(c3ccccc3)CC2)nc2ccccc12	43.5 nM	228 nM	
Cc1sc2nc(CCCCCN3CCN(c4ccccc4)CC3)[nH]c(=O)c2c1C	15.2 nM	30.1 nM	
CCOc1ccccc1N1CCN(CCCCCn2cnc3sc(C)c(C)c3c2=O)CC1	1.03 nM	2.99 nM	inhibition [3]: 38%
Cc1sc2nc(CCCCCN3CCN(c4ccc(Cl)cc4)CC3)[nH]c(=O)c2c1C	53.9 nM	1460 nM	
Cc1sc2ncn(CCCCCN3CCN(c4ccccc4)CC3)c(=O)c2c1C	16.1 nM	143 nM	
NC(=O)c1ccccc1NC(=O)CCCCN1CCN(c2cccc(Cl)c2)CC1	39.6 nM	168 nM	
Cc1sc2ncn(CCCCCN3CCN(c4ccc(Cl)cc4)CC3)c(=O)c2c1C	26.4 nM	213 nM	
Cc1sc2nc(CCCCN3CCC(Cc4ccccc4)CC3)[nH]c(=O)c2c1C			inhibition [4]: < 50%
Cc1sc2ncn(CCCCCN3CCN(c4cccc(Cl)c4)CC3)c(=O)c2c1C	3.23 nM	88.5 nM	Ratio Ki [6]: 27
Cc1sc2nc(CCCCCN3CCN(c4cccc(Cl)c4)CC3)[nH]c(=O)c2c1C	114 nM	68.4 nM	Ratio Ki [7]: 2
Cc1sc2ncn(CCCCCN3CCN(Cc4ccccc4)CC3)c(=O)c2c1C	211 nM	1650 nM	
Cc1sc2nc(CCCCN3CCN(c4ccccc4)CC3)[nH]c(=O)c2c1C	37.4 nM	357 nM	Ratio Ki [6]: 10
